In test [1] the test system is marrow cell-derived macrophages. Description: Cytotoxicity test, CellTiter 96 Non-Radioactive Cell Proliferation Assay, marrow cell-derived macrophages. To be noted: Mus musculus, Macrophage. The test is classed as cell-based. The method, then: For preparation of mouse macrophages, the mouse femur was severed and then both ends thereof were cut. A 1-ml syringe was filled with the RPMI-1640 medium (Gibco), which was then used to isolate and take marrow cells in the femur. Blood cells were removed from the taken marrow cells by a low-osmotic buffer, and then the number of marrow cells was measured using a microscope. After appropriate dilution with the RPMI-1640 medium, the marrow cells were seeded in a 96-well microplate at 100,000 cells per well. After culturing in a CO2 incubator at 37° C. for 2 hours, cells other than the marrow cells were removed through exchange with a new RPMI-1640 medium. The medium was substituted with a culture supernatant of L929 cells, followed by culturing for 3 days. Again, the medium was substituted with a new culture supernatant of L929 cells, followed by culturing for 3 days.
Cytotoxicity was measured according to the method of Promega Inc., and 15 μl of a staining solution was applied to each well of the 96-well plate. The cells were incubated in a CO2 incubator at 37° C. for 4 hours, and then 100 μl of a quiescent solution was applied thereto. The absorbance of each well was measured at 570 nm using an absorbance measurement equipment from Molecular Devices. The absorbance values of wells not containing the compounds of Chemical Formulas 1 to 4 were compared with those of wells containing the compounds of Chemical Formulas 1 to 4 to determine the inhibition (%). The correlation between inhibition and concentration was calculated using the Prism software from Graphpad to determine IC50 (concentration at 50% inhibition) value. The marrow cell-derived macrophages were prepared by the method as described in Example 3 above.

Test [2] has as its system carbon monoxide dehydrogenase (CO-DH). Description: CO-DH activity assay (INT reduction in the presence of CO, enzyme extract). The test is classed as biochemical. To be noted: 12.5 μM compound; relative to control group set to 100%. The method, then:
In order to obtain an enzyme extract to be used for the measurement of CO-DH activity, the bacteria cultured according to respective experiment conditions were collected by centrifugation at 18,000×g for 10 minutes at 4° C. (Eppendorf centrifuge-5403, Hamburg, Germany), washed twice with a 50 mM Tris-HCl (pH 7.5) buffer solution, and re-suspended in […] of a 50 mM Tris-HCl (pH 7.5) buffer solution. The suspended bacteria were homogenized at 0° C. by repeating 20 times of ultrasonication using an ultrasonic processor (Sonics & Materials Inc., Danbury, Conn.) wherein the ultrasonication was conducted such that ultrasonic wave at 20% amplitude was applied for 3 seconds and paused for 10 seconds. The homogenized culture solution was collected by centrifugation at 18,000×g for 30 minutes at 4° C. (Eppendorf centrifuge-5403), and a supernatant was used as an enzyme extract.
Proteins were quantified using bovine serum albumin (BSA) as a standard protein according to the method of Bradford (1976).
CO-DH activity was determined by measuring the reduction rate of 2-(4-indophenyl)-3-(4-nitrophenyl)-2H-tetrazolium chloride (INT, Sigma, ε496=17.981 mM^−1 cm^−1) in the presence of CO. Here, 1-methoxyphenazine methosulfate (MPMS, Sigma) was used as an electron transfer mediator between CO-DH and INT. A mixture solution of 19.2 ml of 50 mM Tris-HCl (pH 7.5), 250 μl of INT (9.8 mM), 50 μl of MPMS (8.9 mM), and 500 μl of Triton X-100 (25%, v/v) was saturated with CO gas. 800 μl of the resultant solution was added into a plastic cuvette, and then each compound was added thereto to a final concentration of 12.5 μM. Last, 800 μl of the enzyme extract was added thereto, followed by reaction at 30° C. for 200 seconds. Here, the absorbance change is due to red formazan generated resulting from INT reduction, and was measured at 496 nm by using a spectrophotometer (U-2000, Hitachi) equipped with a temperature adjuster. Enzyme specific activity was expressed as nmoles of reduced INT per mg of protein per minute (nmol/mg protein/min). The enzyme specific activity of each compound treatment group was expressed as a percentage of the control group of which enzyme specific activity was set to 100%, and the results were summarized in Table 1.

Test [3] deals with Vero cell line (ATCC CCL-81). The experiment in a line: Cytotoxicity test, CellTiter 96 Non-Radioactive Cell Proliferation Assay, Vero cell line. The test is classed as cell-based. The following applies: Chlorocebus sabaeus, 72 h, 3 days.
The test system of test [4] is Mycobacterium sp. strain JC1 wild type. Description: CFU inhibition of JC1 wild type by compound alone. To be noted: read-out: Compound analog + JC 1 wild type (percentage (%) of CFU inhibition). It counts as cell-based.

For orientation: IC50 means the concentration at which inhibition is half-maximal. One may read the inhibition as the change of the read-out against control, counted positive when it falls. Turning to `COC(=O)c1ccsc1NC(=O)CSc1ccncc1` [Compound 1], in test [1], the concentration for half-maximal inhibition (IC50) was above 100 µM. For the same molecule, in test [2], the “Inhibition of CO-DH activity” value came to 48%. In test [3], the IC50 amounted to 75.2 µM. Further, in test [4], the inhibition at 12.5 µM was 0%, the inhibition at 25 µM was 2% and the inhibition at 50 µM stood at 6%.
Consider `COC(=O)c1ccccc1NC(=O)CSc1ccc(Br)cc1` [Compound 2], for which the IC50 in test [1] was above 100 µM. The “Inhibition of CO-DH activity” value in test [2] was found to be 18%. Moreover, the concentration for half-maximal inhibition (IC50) in test [3] came to 36.4 µM. In test [4], the inhibition at 12.5 µM turned out to be 3%, the inhibition at 25 µM is 9% and the inhibition at 50 µM is 12%.
Regarding `COC(=O)c1ccccc1NC(=O)CSc1ccccn1` [Compound 3], in test [1], the IC50 was above 100 µM. Moreover, the “Inhibition of CO-DH activity” value in test [2] amounted to 15%. Moreover, the IC50 in test [3] is 109 µM. Besides, in test [4], the inhibition at 12.5 µM was 4%, the inhibition at 25 µM stood at 2% and the inhibition at 50 µM turned out to be 8%.
As for `COC(=O)c1ccc(Cl)cc1NC(=O)CCSc1ccccn1` [Compound 4], the half-inhibitory concentration (IC50) in test [1] was above 100 µM. Also, the “Inhibition of CO-DH activity” value in test [2] was determined as 7%. Further, the IC50 in test [3] worked out at 158 µM. For the same molecule, in test [4], the inhibition at 12.5 µM is 2%, the inhibition at 25 µM was 4% and the inhibition at 50 µM turned out to be 16%.
